# Test results: PMC8831244 (Nature methods, 2022)
# B1: OX2R: wild-type human orexin type-2 receptor (protein, UniProt O43614 1-444, looked up)
# Orexin receptor type 2: MSGTKLEDSPPCRNWSSASELNETQEPFLNPTDYDDEEFLRYLWREYLHPKEYEWVLIAGYIIVFVVALIGNVLVCVAVWKNHHMRTVTNYFIVNLSLADVLVTITCLPATLVVDITETWFFGQSLCKVIPYLQTVSVSVSVLTLSCIALDRWYAICHPLMFKSTAKRARNSIVIIWIVSCIIMIPQAIVMECSTVFPGLANKTTLFTVCDERWGGEIYPKMYHICFFLVTYMAPLCLMVLAYLQIFRKLWCRQIPGTSSVVQRKWKPLQPVSQPRGPGQPTKSRMSAVAAEIKQIRARRKTARMLMIVLLVFAICYLPISILNVLKRVFGMFAHTEDRETVYAWFTFSHWLVYANSAANPIIYNFLSGKFREEFKAAFSCCCLGVHHRQEDRLTRGRTSTESRKSLTTQISNFDNISKLSEQVVLTSISTLPAANGAGPLQNW
# What was measured:
# OxLight1 [1] = biological target: T1, OxLight1 (Homo sapiens, UniProt O43614, DEL254-292/I293E/K294R/L160H/M161K/Q254E); type: cell-based; settings: Almorexant 10 μM after OXB 5 μM
# T1 sequence (O43614 with tags, fused parts or gaps L160H/M161K/DEL254-292/I293E/K294R): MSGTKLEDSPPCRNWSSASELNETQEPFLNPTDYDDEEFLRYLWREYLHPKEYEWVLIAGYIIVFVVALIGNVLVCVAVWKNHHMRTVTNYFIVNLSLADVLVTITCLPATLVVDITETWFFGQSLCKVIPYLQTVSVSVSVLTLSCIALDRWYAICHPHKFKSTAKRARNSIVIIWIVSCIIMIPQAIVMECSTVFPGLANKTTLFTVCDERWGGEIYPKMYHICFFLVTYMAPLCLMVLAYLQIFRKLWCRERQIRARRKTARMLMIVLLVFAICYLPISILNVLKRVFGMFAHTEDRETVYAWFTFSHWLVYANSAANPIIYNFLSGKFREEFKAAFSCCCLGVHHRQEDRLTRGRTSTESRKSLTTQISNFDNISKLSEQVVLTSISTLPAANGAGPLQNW
# [2] = tested on: OxLight1 in basal forebrain or LH; assay: Photometry with polysomnographic recordings across sleep-wake states; type: in vivo, mouse; settings: 50 mg/kg, per os, mice
# OxLight1 [3] = assay: Photometry during anesthesia; type: in vivo, mouse; settings: isoflurane 2% 10 min or medetomidine 0.5 mg/kg i.p., mice
# OxLight1 [4] = biological target: T1, OxLight1; type: cell-based; settings: 10 μM, HEK293T
# OxLight1 [5] = biological target: T1, OxLight1; type: cell-based; settings: OxLight1, 10 μM orexin, HEK cells, mean ± SEM
# OxLight1 [6] = biological target: T1, OxLight1; type: cell-based; settings: 10 μM, HEK293T, 37°C, mono-exponential fit, n = 8 dishes, mean ± SEM
# OX2R [7] = assay: Intracellular calcium signaling, OX2R-expressing HEK293T cells; type: cell-based, human; settings: orexin-A and orexin-B
# OX2R [8] = assay: Mini-G protein recruitment to OX2R, TIRF microscopy; type: cell-based, human; settings: OXB 50 nM
# OX2R [9] = assay: beta-Arrestin-2 recruitment to OX2R, TIRF microscopy; type: cell-based, human; settings: agonist stimulation 15 min
molecule,measurement,setting,value
CNC(=O)[C@@H](c1ccccc1)N1CCc2cc(OC)c(OC)cc2[C@@H]1CCc1ccc(C(F)(F)F)cc1 [Almorexant],reversal of fluorescence response,OxLight1 [1],fully reversed
Cc1ccc(-n2nccn2)c(C(=O)N2CCN(c3nc4cc(Cl)ccc4o3)CC[C@H]2C)c1 [Suvorexant],effect on OxLight1 response across sleep-wake states,[2],significantly reduced the response of OxLight1
FC(F)OC(Cl)C(F)(F)F (stereo not shown) [isoflurane],effect on OxLight1 signal,OxLight1 [3],significant decrease in OxLight1 signal
Cc1cccc(C(C)c2cnc[nH]2)c1C (stereo not shown) [medetomidine],effect on OxLight1 signal,OxLight1 [3],no change
Dynorphin,OxLight1 response to neuropeptide,OxLight1 [4],lack of response
orexin-B: endogenous orexin neuropeptide,"ΔF/F0, maximal response",OxLight1 [5],859 ± 27%
same,activation time constant τ,OxLight1 [6],618 ± 98 ms
same,intracellular Ca2+ response,OX2R [7],robust intracellular Ca^2+ responses
B1,mini-G recruitment,OX2R [8],selective and strong recruitment of mini-Gq
same,β-arrestin-2 engagement,OX2R [9],robust β-arrestin-2 engagement
